Experimental data from publication PMC5372594 (International Journal of Molecular Sciences, 2017).
Peptide text beside a SMILES is read from it.

What was measured:
[1] = in vivo; conditions: male, C57BL/6J, mouse
Method: (§1) Retro orbital blood collections were performed on mice at different time points (0, 1, 2, 3, 4, 6, 8, 10 and 12 h).

[2] = biological target: T1, GLP-1R (Homo sapiens, UniProt P43220); assay: CHO cell cAMP accumulation assay (ELISA); assay type: cell-based; conditions: 30 min incubation, 0.5 mM IBMX, 3-parameter non-linear regression, n = 3
T1 construct: expressed in transfected cells
Method: CHO cells were stably transfected with GLP-1R and grown in conditions described above. […] After 4-h culture, cells were treated with compounds diluted in assay buffer to concentrations within the 10^−4–10^4 nM range and incubated for 30 min. Cells were lysed by freezing and thawing three times. The samples were then assayed according to the cAMP ELISA assay kit protocol (Jiancheng, Nanjing, China).

[3] = test system: trypsin; assay: Trypsin resistance measured by HPLC (residue rate); assay type: in vitro ADME
From the text: The substrate was hydrolyzed with trypsin, and the peak area of the sample, which added the stop-buffer at the start point, was set to 100%.

[4] = biological target: T1, GLP-1R; assay: CRE-luciferase reporter-gene assay, CHO cells stably expressing human GLP-1 receptor; assay type: cell-based; conditions: 4-h culture with peptide, 10-step 5-fold dilution from 250 nmol/L, mean ± SEM, n = 3
Method: A cyclic adenosine monophosphate response element (CRE)-luciferase based reporter-gene assays, as a surrogate for cyclic adenosine monophosphate (cAMP) formation, were used to measure the abilities of the analogs to activate GLP-1R.
Cells were grown at 37 °C with 5% CO2 in Dulbecco’s modified Eagle’s medium-F12 supplemented with 10% fetal bovine serum (FBS), 4.5 g/L glucose, 100 units/ml penicillin, 100 mg/mL streptomycin, 0.6 mg/mL hygromycin B and 1 mg/mL G418. […] Each well contained 20,000 cells. The initial concentration of each analog and positive control was 250 nmol/L, which was diluted 5 times to produce a 10-step gradient, and each well contained 20 μL. After 4-h culture, 100 μL of a chemical light-emitting substrate was added to each well. Fluorescence was measured with an EnVision 2104 Multilabel Reader (PerkinElmer, Houston, TX, USA) after a 40-min oscillation at 25 °C.

[5] = mouse, in vivo
Method: as §1

[6] = test system: trypsin; assay: trypsin; conditions: up to 60 min

T1 sequence (P43220 24-463): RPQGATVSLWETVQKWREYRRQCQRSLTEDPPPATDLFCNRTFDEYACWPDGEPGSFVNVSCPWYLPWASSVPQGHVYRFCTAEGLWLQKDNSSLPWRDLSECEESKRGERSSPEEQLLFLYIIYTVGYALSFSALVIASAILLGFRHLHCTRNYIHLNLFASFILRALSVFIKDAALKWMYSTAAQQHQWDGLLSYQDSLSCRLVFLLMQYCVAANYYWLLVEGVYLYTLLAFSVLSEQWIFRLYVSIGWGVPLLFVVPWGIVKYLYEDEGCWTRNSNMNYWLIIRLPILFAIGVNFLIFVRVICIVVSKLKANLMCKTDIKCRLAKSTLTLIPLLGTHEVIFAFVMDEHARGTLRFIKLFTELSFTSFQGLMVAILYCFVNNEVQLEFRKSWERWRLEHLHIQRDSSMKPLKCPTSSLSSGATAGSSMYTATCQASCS

CC[C@H](C)[C@H](NC(=O)[C@H](Cc1ccccc1)NC(=O)[C@H](CC(C)C)NC(=O)[C@H](CC(C)C)NC(=O)[C@@H](NC(=O)[C@H](C)NC(=O)[C@H](CCC(=O)O)NC(=O)[C@H](CCC(=O)O)NC(=O)[C@H](CCC(=O)O)NC(=O)[C@H](CCSC)NC(=O)[C@H](CCC(N)=O)NC(=O)[C@H](CCSC)NC(=O)[C@H](CO)NC(=O)[C@H](CC(C)C)NC(=O)[C@H](CC(=O)O)NC(=O)[C@H](CO)NC(=O)[C@@H](NC(=O)[C@H](Cc1ccccc1)NC(=O)[C@@H](NC(=O)CNC(=O)[C@H](CCC(=O)O)NC(=O)CNC(=O)[C@@H](N)Cc1c[nH]cn1)[C@@H](C)O)[C@@H](C)O)C(C)C)C(=O)N[C@@H](CCC(=O)O)C(=O)N[C@@H](Cc1c[nH]c2ccccc12)C(=O)N[C@@H](CC(C)C)C(=O)N[C@@H](CCSC)C(=O)N[C@@H](CC(N)=O)C(=O)NCC(=O)NCC(=O)N1CCC[C@H]1C(=O)N[C@@H](CO)C(=O)N[C@@H](CO)C(=O)NCC(=O)N[C@@H](C)C(=O)N1CCC[C@H]1C(=O)N1CCC[C@H]1C(=O)N1CCC[C@H]1C(=O)N[C@@H](CO)C(=O)N[C@@H](CS)C(=O)O [TSME-1] (H-HGEGTFTSDLSMQMEEEAVLLFIEWLMNGGPSSGAPPPSC-OH)
AUC(0-t) ([1]; po): 0.56 ± 0.15 ng·h/mL | Cmax ([1]; po, 2.12 mg/kg): 0.2 ± 0.05 ng/mL | AUC(0-t) ([1]; sc): 3.17 ± 0.72 ng·h/mL | EC50 [2]: 1.1 nM | Residue rate at 30 min [3]: 100% ± 0% | remaining at 1 h ([3]; isolated enzyme trypsin): 100% | EC50 [4]: 0.38 nM | Relative bioavailability [5]: 0.881% | Time to peak concentration ([5]; po): An hour

CC[C@H](C)[C@H](NC(=O)[C@H](Cc1ccccc1)NC(=O)[C@H](CC(C)C)NC(=O)[C@@H](NC(=O)[C@@H](NC(=O)[C@H](C)NC(=O)[C@H](CCC(=O)O)NC(=O)[C@H](CCC(=O)O)NC(=O)[C@H](CCC(=O)O)NC(=O)[C@H](CCSC)NC(=O)[C@H](CCC(N)=O)NC(=O)[C@@H](NC(=O)[C@H](CO)NC(=O)[C@H](CC(C)C)NC(=O)[C@H](CC(=O)O)NC(=O)[C@H](CO)NC(=O)[C@@H](NC(=O)[C@H](Cc1ccccc1)NC(=O)[C@@H](NC(=O)CNC(=O)[C@H](CCC(=O)O)NC(=O)CNC(=O)[C@@H](N)Cc1c[nH]cn1)[C@@H](C)O)[C@@H](C)O)C(C)C)C(C)C)C(C)C)C(=O)N[C@@H](CCC(=O)O)C(=O)N[C@@H](Cc1c[nH]c2ccccc12)C(=O)N[C@@H](CC(C)C)C(=O)N[C@H](C(=O)N[C@@H](CC(N)=O)C(=O)NCC(=O)NCC(=O)N1CCC[C@H]1C(=O)N[C@@H](CO)C(=O)N[C@@H](CO)C(=O)NCC(=O)N[C@@H](C)C(=O)N1CCC[C@H]1C(=O)N1CCC[C@H]1C(=O)N1CCC[C@H]1C(=O)N[C@@H](CO)C(=O)N[C@@H](CS)C(=O)O)C(C)C [TSME-3] (H-HGEGTFTSDLSVQMEEEAVVLFIEWLVNGGPSSGAPPPSC-OH)
EC50 [4]: 19.2 nM

CC[C@H](C)[C@H](NC(=O)[C@H](Cc1ccccc1)NC(=O)[C@H](CC(C)C)NC(=O)[C@H](Cc1ccc(O)cc1)NC(=O)[C@@H](NC(=O)[C@H](C)NC(=O)[C@H](CCC(=O)O)NC(=O)[C@H](CCC(=O)O)NC(=O)[C@H](CCC(=O)O)NC(=O)[C@H](CCSC)NC(=O)[C@H](CCC(N)=O)NC(=O)[C@H](CCSC)NC(=O)[C@H](CO)NC(=O)[C@H](CC(C)C)NC(=O)[C@H](CC(=O)O)NC(=O)[C@H](CO)NC(=O)[C@@H](NC(=O)[C@H](Cc1ccccc1)NC(=O)[C@@H](NC(=O)CNC(=O)[C@H](CCC(=O)O)NC(=O)CNC(=O)[C@@H](N)Cc1c[nH]cn1)[C@@H](C)O)[C@@H](C)O)C(C)C)C(=O)N[C@@H](CCC(=O)O)C(=O)N[C@@H](Cc1c[nH]c2ccccc12)C(=O)N[C@@H](CC(C)C)C(=O)N[C@@H](CCSC)C(=O)N[C@@H](CC(N)=O)C(=O)NCC(=O)NCC(=O)N1CCC[C@H]1C(=O)N[C@@H](CO)C(=O)N[C@@H](CO)C(=O)NCC(=O)N[C@@H](C)C(=O)N1CCC[C@H]1C(=O)N1CCC[C@H]1C(=O)N1CCC[C@H]1C(=O)N[C@@H](CO)C(=O)N[C@@H](CS)C(=O)O [TSME-4] (H-HGEGTFTSDLSMQMEEEAVYLFIEWLMNGGPSSGAPPPSC-OH)
EC50 [4]: 31.2 nM

CC[C@H](C)[C@H](NC(=O)[C@H](CC(C)C)NC(=O)[C@H](Cc1c[nH]c2ccccc12)NC(=O)[C@H](CCC(=O)O)NC(=O)[C@@H](NC(=O)[C@H](Cc1ccccc1)NC(=O)[C@H](CC(C)C)NC(=O)[C@H](Cc1ccc(O)cc1)NC(=O)[C@@H](NC(=O)[C@H](C)NC(=O)[C@H](CCC(=O)O)NC(=O)[C@H](CCC(=O)O)NC(=O)[C@H](CCC(=O)O)NC(=O)[C@H](CCSC)NC(=O)[C@H](CCC(N)=O)NC(=O)[C@@H](NC(=O)[C@H](CO)NC(=O)[C@H](CC(C)C)NC(=O)[C@H](CC(=O)O)NC(=O)[C@H](CO)NC(=O)[C@@H](NC(=O)[C@H](Cc1ccccc1)NC(=O)[C@@H](NC(=O)CNC(=O)[C@H](CCC(=O)O)NC(=O)CNC(=O)[C@@H](N)Cc1c[nH]cn1)[C@@H](C)O)[C@@H](C)O)[C@@H](C)CC)C(C)C)[C@@H](C)CC)C(=O)N[C@@H](CC(N)=O)C(=O)NCC(=O)NCC(=O)N1CCC[C@H]1C(=O)N[C@@H](CO)C(=O)N[C@@H](CO)C(=O)NCC(=O)N[C@@H](C)C(=O)N1CCC[C@H]1C(=O)N1CCC[C@H]1C(=O)N1CCC[C@H]1C(=O)N[C@@H](CO)C(=O)N[C@@H](CS)C(=O)O [TSME-5] (H-HGEGTFTSDLSIQMEEEAVYLFIEWLINGGPSSGAPPPSC-OH)
EC50 [4]: 8.83 nM

HGEGTFTSDLSMQMEEEAVLLFIEWLMNGGPSSGAPPPSC
not cleaved [6]: 100% at 60 min
